Measured values from patent publication US20110178104A1, “Anti-Heparin Compounds” (POLYMEDIX INC., priority 2010, published 2011).

Columns and labels:
[1] = tested on: unfractionated heparin (UFH); experiment: aPTT clotting assay, UFH 0.2 U/mL in plasma (Example 7); type: biochemical; details: UFH 0.2 U/mL in plasma
Experimental: aPTT clotting Assay. Unfractionated heparin was mixed with plasma at a final concentration of 0.2 U/mL. […] The ACL Elite Hemostasis analyzer (Beckman Coulter™) was used to add aPTT reagent (HemosIL SynthASil) to supplemented plasma. Clotting was initiated by addition of CaCl2 and time to clot was recorded.

enoxaparin (ENOX) = experiment: FXa chromogenic assay (absence of plasma), enoxaparin; details: enoxaparin 0.1 μg/mL, absence of plasma
fondaparinux (FONDAPX) = experiment: FXa chromogenic assay (absence of plasma), fondaparinux; details: fondaparinux 0.02 μg/mL, absence of plasma
Experimental: Human antithrombin was mixed with an anticoagulant agent (a LMWH or fondaparinux); final concentrations were 0.22 μg/mL for the LMWHs and 0.07 μg/mL for fondaparinux. […] Absorbance was read every 30 seconds over a 4 minute period in a SpectraMax 250 instrument (Molecular Devices, Inc.). EC50 values are determined by a curve-fit program (SoftMax Pro) using the following formula:
FXa Chromogenic Assay (absence of plasma). Human antithrombin was mixed with an anticoagulant (a LMWH or fondaparinux); final concentrations were 0.1 μg/mL for the LMWHs and 0.02 μg/mL for fondaparinux. […] Absorbance was read every 30 seconds over a 4 minute period in a SpectraMax 250 instrument (Molecular Devices Inc.™) The slope of absorbance vs time was calculated for each compound concentration. EC50 values were determined using a curve fit program (GraphPad Prism 5).

Structure (SMILES) | UFH (aPTT) EC50 [1] [µg/mL] | ENOX (FXa) EC50 (enoxaparin (ENOX)) [µg/mL] | FONDAPX (FXa) EC50 (fondaparinux (FONDAPX))
COc1ccc(NC(=O)[C@@H](CCCNC(=N)N)NC(=O)c2cc(NC(=O)[C@@H](CCCNC(=N)N)NC(=O)c3cc(NC(=O)[C@H](CCCNC(N)=O)NC(=O)c4cc(NC(=O)[C@H](N)CCCNC(=N)N)ccc4OC)ccc3OC)ccc2OC)cc1C(N)=O [Compound 83] | 4.73 | 1.02 | 14.79 µg/mL
COc1ccc(NC(=O)[C@@H](Cc2c[nH]c3ccccc23)NC(=O)c2cc(NC(=O)[C@@H](CCCNC(=N)N)NC(=O)c3cc(NC(=O)[C@@H](CCCNC(=N)N)NC(=O)c4cc(NC(=O)[C@H](N)CCCNC(=N)N)ccc4OC)ccc3OC)ccc2OC)cc1C(N)=O [Compound 84] | 3.09 | 0.32 | 1.99 µg/mL
N=C(N)NCCCCC(=O)Nc1cc(C(F)(F)F)cc(NC(=O)c2ccc(C(=O)Nc3cc(C(F)(F)F)cc(NC(=O)CCCCNC(=N)N)c3SCCN)cc2)c1SCCN [Compound 87] | >10 | 6.35 | 15.91 µg/mL
COc1cc(C(=O)Nc2cc(C(F)(F)F)cc(NC(=O)CCCCNC(=N)N)c2SCCN)c(OC)cc1C(=O)Nc1cc(C(F)(F)F)cc(NC(=O)CCCCNC(=N)N)c1SCCN [Compound 88] | 4.30 | 0.24 | 1.38 µg/mL
COc1ccc(NC(=O)[C@H](CCCCN)NC(=O)c2cc(NC(=O)[C@H](CCCCN)NC(=O)c3cc(NC(=O)[C@H](CCCCN)NC(=O)c4cc(NC(=O)[C@@H](N)CCCCN)ccc4OC)ccc3OC)ccc2OC)cc1C(N)=O [Compound 90] | 0.9713 | 0.093 | 0.272 µg/mL
COc1ccc(NC(=O)[C@H](CCCCN)NC(=O)c2cc(NC(=O)[C@H](CCCCN)NC(=O)c3cc(NC(=O)[C@H](CCCCN)NC(=O)c4cccc(NC(=O)[C@@H](N)CCCCN)c4)ccc3OC)ccc2OC)cc1C(N)=O [Compound 91] | 2.03 | 0.58 | 13.11 µg/mL
COc1ccc(NC(=O)[C@H](CCCNC(=N)N)NC(=O)c2cc(NC(=O)[C@H](CCCNC(=N)N)NC(=O)c3cc(NC(=O)[C@H](CCCNC(=N)N)NC(=O)c4cc(NC(=O)[C@H](C)NC(=O)CCCCNC(=N)N)ccc4OC)ccc3OC)ccc2OC)cc1C(N)=O [Compound 92] | 7.17 | 0.55 | 1.40 µg/mL
COc1ccc(NC(=O)[C@@H](CCCNC(=N)N)NC(=O)c2cc(NC(=O)[C@@H](CCCNC(=N)N)NC(=O)c3cc(NC(=O)[C@@H](CCCNC(=N)N)NC(=O)c4cc(NC(C)=O)ccc4OC)ccc3OC)ccc2OC)cc1C(N)=O [Compound 93] | 2.28 | 0.38 | 0.42 µg/mL
COc1ccc(NC(=O)[C@H](C)NC(=O)c2cc(NC(=O)[C@H](CCCCN)NC(=O)c3cc(NC(=O)[C@H](CCCCN)NC(=O)c4cc(NC(=O)[C@@H](N)CCCCN)ccc4OC)ccc3OC)ccc2OC)cc1C(N)=O [Compound 94] | 4.94 | 1.32 | >20 µg/mL
COc1ccc(NC(=O)[C@H](CCCCN)NC(=O)c2cc(NC(=O)[C@H](CCCCN)NC(=O)c3cc(NC(=O)[C@H](CCCCN)NC(=O)c4cc(NC(=O)[C@H](C)N)ccc4OC)ccc3OC)ccc2OC)cc1C(N)=O [Compound 95] | 2.42 | 0.5734 | 5.277 µg/mL
COc1ccc(NC(=O)[C@H](CCCCN)NC(=O)c2cc(NC(=O)[C@H](CCCCN)NC(=O)c3cc(NC(=O)[C@H](CCCCN)NC(=O)c4cc(NC(=O)[C@@H](N)CCCCN)ccc4OC)ccc3OC)ccc2OC)cc1C(=O)O [Compound 96] | 3.59 | 5.567 | inactive
CSc1ccc(NC(=O)[C@H](CCCNC(=N)N)NC(=O)c2cc(NC(=O)[C@H](CCCNC(=N)N)NC(=O)c3cc(NC(=O)[C@H](CCCNC(=N)N)NC(=O)c4cc(NC(=O)[C@@H](N)CCCNC(=N)N)ccc4SC)ccc3SC)ccc2SC)cc1C(N)=O [Compound 97] | >10 | 0.9842 | >20 µg/mL
COc1ccc(NC(=O)[C@H](CCCCCN)NC(=O)c2cc(NC(=O)[C@H](CCCCCN)NC(=O)c3cc(NC(=O)[C@H](CCCCCN)NC(=O)c4cc(NC(=O)[C@@H](N)CCCCCN)ccc4OC)ccc3OC)ccc2OC)cc1C(N)=O [Compound 98] | 3.14 | 0.1731 | inactive
